# Measured values published in US20250339504A1, “CANCER VACCINE WITH USE OF COMMON CANCER ANTIGEN COCKTAIL, TCR/CAR-T CELL THERAPEUTIC, COMPANION DIAGNOSTIC METHOD, AND METHOD FOR DIAGNOSING RISK OF CANCER ONSET BY DETECTING CIRCULATING TUMOR CELLS” (National Cancer Center, priority 2022, published 2025).
# Tests used:
# [1] = test system: HLA-A*24:02 transgenic mice; assay: Peptide vaccine CTL induction, IFN-γ ELISpot, HLA-A*24:02 Tgm; format: in vivo; conditions: HLA-A*24:02-restricted short peptide vaccine once per week, three times, splenocytes
# Protocol: (§1) The predicted antigen peptides were evaluated on the capability of inducing CTLs by using transgenic mice with an HLA gene introduced therein. Each peptide was dissolved in dimethyl sulfoxide (DMSO, FUJIFILM Wako Pure Chemical Corporation) at 10 mg/ml, and HLA transgenic mice were immunized with the resultant together with an adjuvant every week, three times in total. One week after that, the spleens were extracted, and the productions of IFN-γ were evaluated through IFN-γ ELISpot assay.
# (§2) In ELISpot assay, CD8-positive T cells were isolated from splenocytes of immunized mice by means of an MACS, and suspended at 1×10^5 cells/well, and the resultant was used as effector cells. Splenocytes of unimmunized mice were subjected to radiation (100 kV, 10 mA, 100 Gy), and suspended at a concentration of 2×10^6 cells/well in Final medium supplemented with any one of the peptides at a concentration of 20 ug/ml, and the resultant was used as target cells.
# (§3) FIG. 14, FIG. 15, and Table 1 show identification of multiple peptides each capable of inducing CD8-positive killer T cells (CTLs) reactive with the peptide in splenocytes of mice systemically expressing human HLA-A*24:02 or HLA-A*02:01 in their cells by screening, wherein a peptide vaccine of peptides predicted to be presented by HLA-A*24:02 or HLA-A*02:01 and synthesized from the amino acid sequences of the ten common cancer antigen full-length proteins was administered once per week, three times in total. The rates of inducing CTLs reactive with those peptides were 30 peptides in the 72 HLA-A*24:02-restricted common cancer antigen short peptides, and 38 peptides in the 73 HLA-A*02:01-restricted common cancer antigen short peptides; 68 peptides in the 145 peptides in total.
# [2] = test system: HLA-A*24:02 Tgm; assay: Long peptide vaccine, IFN-γ ELISpot, HLA-A*24:02 Tgm; format: in vivo, mice; conditions: long peptide (15 to 21 mer) containing the short peptide, CTLs reactive with the short peptide
# Protocol: as §2
# [3] = test system: HLA-A*02:01 transgenic mice; assay: Peptide vaccine CTL induction, IFN-γ ELISpot, HLA-A*02:01 Tgm; format: in vivo; conditions: HLA-A*02:01-restricted short peptide vaccine once per week, three times, splenocytes
# Protocol: as §1, §2, §3
# [4] = test system: HLA-A*02:01 Tgm; assay: Long peptide vaccine, IFN-γ ELISpot, HLA-A*02:01 Tgm; format: in vivo, mice; conditions: long peptide (15 to 21 mer) containing the short peptide, CTLs reactive with the short peptide
# Protocol: as §2
sequence,measurement,setting,value
"NYGIYKQDL [CA24 25, hHSP105α HLA-A*24:02 short peptide]",CTL induction,[1],peptide-specific IFN-γ production had been found
HYAKIAADF [CA24 21],CTL induction,[1],Yes
same,Long peptide reaction,[2],No
FIFHKDLCQ [CA02 103],CTL induction,[3],Yes
same,Long peptide reaction,[4],No
GQFTVIQLV [CA02 126],CTL induction,[3],Yes
FLIIQNAAV [A02-GPC3-12],CTL induction,[3],Yes
same,Long peptide reaction,[4],No
FLRRGPFEL [CA02 21],CTL induction,[3],Yes
ILMVFSIWL [CA02 95],CTL induction,[3],Yes
same,Long peptide reaction,[4],Yes
SLVSNVNIEL [CA02 83],CTL induction,[3],Yes
same,Long peptide reaction,[4],Yes
FTYEDPNEAV [CA02 127],CTL induction,[3],Yes
HFFATKCTL [CA24 55],CTL induction,[1],Yes
LQLLGFILA [CLDN1-A02-6],CTL induction,[3],Yes
VIADRPPPV [CA02 97],CTL induction,[3],Yes
same,Long peptide reaction,[4],Yes
FLLCLAGRAL [CA02 56],CTL induction,[3],Yes
same,Long peptide reaction,[4],No
DFSGLLEKC [CA02 104],CTL induction,[3],Yes
same,Long peptide reaction,[4],No
AYMLEVYGSL [LAT1-A24-5],CTL induction,[1],Yes
same,Long peptide reaction,[2],No
TMNDSLSKI [CA0235],CTL induction,[3],Yes
same,Long peptide reaction,[4],No
LLQKIEVPL [CA02 24],CTL induction,[3],Yes
YGNRIVQEF [CLDN1-A24-4],CTL induction,[1],Yes
same,Long peptide reaction,[2],No
"PYPEAKIGRF [CA24 24, hHSP105α HLA-A*24:02 short peptide]",CTL induction,[1],peptide-specific IFN-γ production had been found
RLEAGDHPV [CA02 52],CTL induction,[3],Yes
same,Long peptide reaction,[4],No
YLIGHGTKV [CA02 122],CTL induction,[3],Yes
FIFHKDLCQA [CA02 101],CTL induction,[3],Yes
same,Long peptide reaction,[4],No
HLIDKVISTI [CA02 82],CTL induction,[3],Yes
DFSGLLEKC [CA24 102],CTL induction,[1],Yes
same,Long peptide reaction,[2],No
GWAAASLCL [CLDN1-A24-7],CTL induction,[1],Yes
same,Long peptide reaction,[2],No
ALFTGWAAA [CLDN1-A02-2],CTL induction,[3],Yes
same,Long peptide reaction,[4],No
"KLCGPYEKF [CA24 23, hHSP105α HLA-A*24:02 short peptide]",CTL induction,[1],peptide-specific IFN-γ production had been found
ILPYCRPTF [CA24 98],CTL induction,[1],Yes
same,Long peptide reaction,[2],Yes
ADFSGLLEKC [CA24 105],CTL induction,[1],Yes
same,Long peptide reaction,[2],No
MLVAAIQSA [CA02 86],CTL induction,[3],Yes
same,Long peptide reaction,[4],No
ILSMIHPQL [LAT1-A02-4],CTL induction,[3],Yes
same,Long peptide reaction,[4],No
IYTWIEDHF [CA24 32],CTL induction,[1],Yes
same,Long peptide reaction,[2],No
EFGQALFTGW [CLDN1-A24-5],CTL induction,[1],Yes
same,Long peptide reaction,[2],No
TIHDSIQYV [CA02 13],CTL induction,[3],Yes
same,Long peptide reaction,[4],Yes
AFEFVGEFF [A24-GPC3-17],CTL induction,[1],Yes
same,Long peptide reaction,[2],No
AYLEVTDVI [CA24 91],CTL induction,[1],Yes
IVMWEVMSF [CA24 127],CTL induction,[1],Yes
TFDSSCHFF [CA24 53],CTL induction,[1],Yes
same,Long peptide reaction,[2],No
WYGNRIVQEF [CLDN1-A24-2],CTL induction,[1],Yes
same,Long peptide reaction,[2],No
LLTPVPSLV [LAT1-A02-2],CTL induction,[3],Yes
KLDVGNIVL [LAT1-A02-3],CTL induction,[3],Yes
MYIFPVHWQF [CA24 51],CTL induction,[1],Yes
same,Long peptide reaction,[2],No
FLAELAYDL [CA02 11],CTL induction,[3],Yes
same,Long peptide reaction,[4],Yes
ELFDSLFPV [CA02 12],CTL induction,[3],Yes
DYIGPCKYI [CA24 54],CTL induction,[1],Yes
GLDEEQHSV [CA02 121],CTL induction,[3],Yes
same,Long peptide reaction,[4],Yes
YMLEVYGSL [LAT1-A02-5],CTL induction,[3],Yes
same,Long peptide reaction,[4],No
RYLTLDQVF [CA24 31],CTL induction,[1],Yes
same,Long peptide reaction,[2],No
RIYDMENVLL [A02-GPC3-10],CTL induction,[3],Yes
SYGIVMWEV [CA24 124],CTL induction,[1],Yes
same,Long peptide reaction,[2],Yes
AYYPEDLFI [A24-GPC3-11],CTL induction,[1],Yes
same,Long peptide reaction,[2],No
FFTDVSLYI [A24-GPC3-10],CTL induction,[1],Yes
KYWREYILSL [A24-GPC3-06],CTL induction,[1],Yes
same,Long peptide reaction,[2],No
CYAELGTTI [LAT1-A24-2],CTL induction,[1],Yes
same,Long peptide reaction,[2],Yes
YIIEAFSHA [CA02 91],CTL induction,[3],Yes
KYFTNCKQW [CA24 85],CTL induction,[1],Yes
VLLGLFSTI [CA02 15],CTL induction,[3],Yes
same,Long peptide reaction,[4],Yes
YIFPVHWQF [CA24 52],CTL induction,[1],Yes
same,Long peptide reaction,[2],No
KYVCVGTNM [CA24 95],CTL induction,[1],Yes
YSYAGDNIV [CLDN1-A02-5],CTL induction,[3],Yes
TVDGSTFSV [CA02 92],CTL induction,[3],Yes
KMKPLLPRV [CA0233],CTL induction,[3],Yes
VLDSLVSNV [CA02 81],CTL induction,[3],Yes
STIHDSIQYV [A02-GPC3-14],CTL induction,[3],Yes
same,Long peptide reaction,[4],Yes
AWSYGIVMW [CA24 123],CTL induction,[1],Yes
YYICQTLNV [CA24 97],CTL induction,[1],Yes
same,Long peptide reaction,[2],No
SYMAMIQFAI [CA24 34],CTL induction,[1],Yes
same,Long peptide reaction,[2],No
VMSWIIPVF [LAT1-A24-6],CTL induction,[1],Yes
QLLTPVPSL [LAT1-A02-1],CTL induction,[3],Yes
same,Long peptide reaction,[4],No
FFTDVSLYI [A02-GPC3-18],CTL induction,[3],Yes
"PFSKVLTFL [CA24 22, hHSP105α HLA-A*24:02 short peptide]",CTL induction,[1],peptide-specific IFN-γ production had been found
